In this experiment the target is HIV-1 protease (Human immunodeficiency virus type 1 group M subtype B, UniProt P04585). Put plainly: biochemical. The following applies: for inhibition at 0.123 µM: read-out: HIV-1 Protease % Inhib, dose 0.123 uM. The gist of the method: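 Percent inhibition derived from fluorescent cleavage product separated by filtration after streptavidin-bead capture of intact biotin/FITC substrate. Reaction: enzyme (10 μl, 0.1 μM stock) with substrate (20 μl, 0.2 μM stock) and compound, 1 h at room temperature in dark, pH 5.5 acetate buffer with 1.0 M NaCl and 0.05% NP-40.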

[1] abbreviates: read-out: HIV-1 Protease % Inhib, dose 0.370 uM.
Setting [2] is: read-out: HIV-1 Protease % Inhib, dose 1.100 uM.
Where [3] appears, read: read-out: HIV-1 Protease % Inhib, dose 3.300 uM.
Where [4] appears, read: read-out: HIV-1 Protease % Inhib, dose 10.000 uM.
[5] abbreviates: read-out: HIV-1 Protease % Inhib, dose 30.000 uM.
[6] abbreviates: dose 3.300 uM, read-out: HIV-1 Protease % Inhib.
The mark [7] stands for this setting: dose 10.000 uM, read-out: HIV-1 Protease % Inhib.
Setting [8] is: dose 30.000 uM, read-out: HIV-1 Protease % Inhib.
[9] abbreviates: dose 1.100 uM, read-out: HIV-1 Protease % Inhib.
The mark [10] stands for this setting: dose 0.370 uM, read-out: HIV-1 Protease % Inhib.

From US5686486A, “4-hydroxy-benzopyran-2-ones and 4-hydroxy-cycloalkyl[b]pyran-2-ones useful to treat retroviral infections” (priority 1995, dated 1997) come the findings set out here.

Where two headings read alike, the source gives them in different places.

Turning to `O=c1oc2c(c(O)c1C(c1cccc(NS(=O)(=O)c3ccc4ccccc4c3)c1)C1CC1)CCCCCC2` (centres unmarked) [Example 266, N-[3-[Cyclopropyl(5,6,7,8,9,10-hexahydro-4-hydroxy-2-oxo-2H-cycloocta[b]pyran-3-yl)methyl]phenyl]-2-naphthalenesulfonamide], the inhibition at 0.123 µM is 79.8%. The inhibition at 0.37 µM under setting [1] stood at 88.4%. The inhibition at 1.1 µM under setting [2] came to 104%. For the same compound, the inhibition at 3.3 µM under setting [3] turned out to be 100%. Besides, the inhibition at 10 µM under setting [4] worked out at 105%. For the same compound, under setting [5], the inhibition at 30 µM came out at 103%.
For the compound `O=c1oc2c(c(O)c1C(c1cccc(NS(=O)(=O)c3ccc(C(F)(F)F)cc3)c1)C1CC1)CCCCCC2` (centres unmarked) [Example 267, N-[3-[Cyclopropyl(5,6,7,8,9,10-hexahydro-4-hydroxy-2-oxo-2H-cycloocta[b]pyran-3-yl)methyl]phenyl]-4-(trifluoromethyl)-benzenesulfonamide], the inhibition at 0.123 µM was determined as 71.5%. The inhibition at 0.37 µM under setting [1] was 83.9%. Besides, the inhibition at 1.1 µM under setting [2] is 92%. The inhibition at 3.3 µM under setting [3] is 107%. Moreover, the inhibition at 10 µM under setting [4] turned out to be 107%. Also, the inhibition at 30 µM under setting [5] turned out to be 110%.
For `O=c1oc2c(c(O)c1C(c1cccc(NS(=O)(=O)c3cccc4ccccc34)c1)C1CC1)CCCCCC2` (centres unmarked) [Example 270, N-[3-[Cyclopropyl(5,6,7,8,9,10-hexahydro4-hydroxy-2-oxo-2H-cycloocta[b]pyran-3-yl)methyl]phenyl]-1-naphthalenesulfonamide], the inhibition at 0.123 µM amounted to 61.7%. Besides, the inhibition at 0.37 µM under setting [1] amounted to 93.1%. Also, under setting [2], the inhibition at 1.1 µM was found to be 107%. Besides, the inhibition at 3.3 µM under setting [3] stood at 111%. The inhibition at 10 µM under setting [4] came out at 116%. Also, under setting [5], the inhibition at 30 µM was 115%.
Turning to `O=c1oc2c(c(O)c1C(c1cccc(NS(=O)(=O)c3cc(Cl)ccc3Cl)c1)C1CC1)CCCCCC2` (centres unmarked) [Example 271, 2,5-Dichloro-N-[3-[cyclopropyl(5,6,7,8,9,10-hexahydro-4-hydroxy-2-oxo-2H-cycloocta[b]pyran-3-yl)methyl]phenyl]-benzenesulfonamide], the inhibition at 0.37 µM under setting [1] stood at 16.7%. The inhibition at 1.1 µM under setting [2] came to 47.5%. The inhibition at 3.3 µM under setting [3] worked out at 75.3%. The inhibition at 10 µM under setting [4] is 88.8%. Also, under setting [5], the inhibition at 30 µM was 94.2%.
Take `O=c1oc2c(c(O)c1C(c1cccc(NS(=O)(=O)c3ccc(Br)cc3)c1)C1CC1)CCCCCC2` (centres unmarked) [Example 272, 4-Bromo-N-[3-[cyclopropyl(5,6,7,8,9,10-hexahydro-4-hydroxy-2-oxo-2H-cycloocta[b]pyran-3-yl)methyl]phenyl]-benzenesulfonamide]: the inhibition at 0.123 µM turned out to be 67.1%. Also, the inhibition at 0.37 µM under setting [1] is 85.2%. Moreover, the inhibition at 1.1 µM under setting [2] worked out at 95.3%. Moreover, the inhibition at 3.3 µM under setting [3] stood at 96.2%. The inhibition at 10 µM under setting [4] was found to be 101%. Moreover, under setting [5], the inhibition at 30 µM is 104%.
As for `O=c1oc2c(c(O)c1C(c1cccc(NS(=O)(=O)c3ccc([N+](=O)[O-])cc3)c1)C1CC1)CCCCCC2` (centres unmarked) [Example 273, N-[3-[Cyclopropyl(5,6,7,8,9,10-hexahydro-4-hydroxy-4-oxo-2H-cycloocta[b]pyran-3-yl)methyl]phenyl]4-nitro-benzenesulfonamide], the inhibition at 0.123 µM was 68.4%. Moreover, the inhibition at 0.37 µM under setting [1] came to 92.3%. Besides, the inhibition at 1.1 µM under setting [2] was 95.9%. In addition, the inhibition at 3.3 µM under setting [3] was found to be 98.2%. The inhibition at 10 µM under setting [4] turned out to be 102%. Besides, the inhibition at 30 µM under setting [5] is 108%.
Regarding `O=c1oc2c(c(O)c1C(c1cccc(NS(=O)(=O)c3cccc([N+](=O)[O-])c3)c1)C1CC1)CCCCCC2` (centres unmarked) [Example 274, N-[3-[Cyclopropyl(5,6,7,8,9,10-hexahydro-4-hydroxy-2-oxo-2H-cycloocta[b]pyran-3-yl)methyl]phenyl]-3-nitro-benzenesulfonamide], the inhibition at 0.123 µM came to 70%. Moreover, the inhibition at 0.37 µM under setting [1] was 88.2%. The inhibition at 1.1 µM under setting [2] was 95.8%. For the same compound, under setting [3], the inhibition at 3.3 µM is 98.8%. The inhibition at 10 µM under setting [4] is 103%. Further, under setting [5], the inhibition at 30 µM was determined as 105%.
With `COc1ccc(S(=O)(=O)Nc2cccc(C(c3c(O)c4c(oc3=O)CCCCCC4)C3CC3)c2)cc1` (centres unmarked) [Example 275, N-[3-[Cyclopropyl(5,6,7,8,9, 10-hexahydro-4-hydroxy-2-oxo-2H-cycloocta[b]pyran-3-yl)methyl]phenyl]-4-methoxy-benzenesulfonamide], the inhibition at 0.123 µM came to 79.3%. The inhibition at 0.37 µM under setting [1] is 120%. For the same compound, under setting [2], the inhibition at 1.1 µM is 128%. In addition, the inhibition at 3.3 µM under setting [3] amounted to 131%. The inhibition at 10 µM under setting [4] turned out to be 133%. The inhibition at 30 µM under setting [5] turned out to be 131%.
With `O=C(O)c1ccc(S(=O)(=O)Nc2cccc(C(c3c(O)c4c(oc3=O)CCCCCC4)C3CC3)c2)cc1` (centres unmarked) [Example 276, 4-[[[3-[Cyclopropyl(5,6,7,8,9,10-hexahydro-4-hydroxy-2-oxo-2H-cycloocta[b]pyran-3-yl)methyl]phenyl]amino]sulfonyl]-benzoic acid], the inhibition at 0.123 µM was found to be 53.4%. Further, the inhibition at 0.37 µM under setting [1] worked out at 92.8%. In addition, the inhibition at 1.1 µM under setting [2] is 99.3%. Also, the inhibition at 3.3 µM under setting [3] came to 94.7%. Moreover, the inhibition at 10 µM under setting [4] was 112%. Further, the inhibition at 30 µM under setting [5] was found to be 124%.
For the compound `Cc1cc(C)c(S(=O)(=O)Nc2cccc(C(c3c(O)c4c(oc3=O)CCCCCC4)C3CC3)c2)c(C)c1` (centres unmarked) [Example 277, N-[3-[Cyclopropyl(5,6,7,8,9,10-hexahydro-4-hydroxy-2-oxo-2H-cycloocta[b]pyran-3-yl)methyl]phenyl]-2,4,6-trimethyl-benzenesulfonamide], under setting [6], the inhibition at 3.3 µM stood at 37.9%. Besides, the inhibition at 10 µM under setting [7] is 79.9%. For the same compound, the inhibition at 30 µM under setting [8] was determined as 94.1%.
For the compound `O=c1oc2c(c(O)c1C(c1cccc(NS(=O)(=O)c3ccc(F)cc3F)c1)C1CC1)CCCCCC2` (centres unmarked) [Example 279, N-[3-[Cyclopropyl(5,6,7,8,9,10-hexahydro-4-hydroxy-2-oxo-2H-cycloocta[b]pyran-3-yl)methyl]phenyl]-2,4-difluoro-benzenesulfonamide], the inhibition at 0.123 µM worked out at 78.2%. Under setting [1], the inhibition at 0.37 µM was found to be 97.3%. Under setting [2], the inhibition at 1.1 µM worked out at 105%. Further, the inhibition at 3.3 µM under setting [3] amounted to 103%. The inhibition at 10 µM under setting [4] was determined as 109%. Moreover, the inhibition at 30 µM under setting [5] was determined as 94.8%.
As to `CCCCOc1ccc(S(=O)(=O)Nc2cccc(C(c3c(O)c4c(oc3=O)CCCCCC4)C3CC3)c2)cc1` (centres unmarked) [Example 282, 4-Butoxy-N-[3-[cyclopropyl(5,6,7,8,9,10-hexahydro-4-hydroxy-2-oxo-2H-cycloocta[b]pyran-3-yl)methyl]phenyl]-benzenesulfonamide], under setting [9], the inhibition at 1.1 µM came out at 10.6%. Moreover, the inhibition at 3.3 µM under setting [6] stood at 43.2%. Further, the inhibition at 10 µM under setting [7] worked out at 65.3%. Under setting [8], the inhibition at 30 µM is 96.3%.
With `CN(C)c1cccc2c(S(=O)(=O)Nc3cccc(C(c4c(O)c5c(oc4=O)CCCCCC5)C4CC4)c3)cccc12` (centres unmarked) [Example 283, N-[3-[Cyclopropyl(5,6,7,8,9,10-hexahydro4-hydroxy-2-oxo-2H-cycloocta[b]pyran-3-yl)methyl]phenyl]-5-(dimethylamino)-1-naphthalenesulfonamide], the inhibition at 0.37 µM under setting [10] was found to be 10.6%. Besides, under setting [9], the inhibition at 1.1 µM stood at 42.3%. In addition, the inhibition at 3.3 µM under setting [6] was found to be 64.2%. The inhibition at 10 µM under setting [7] was 85.1%. Further, the inhibition at 30 µM under setting [8] amounted to 80.2%.
On to `O=c1oc2c(c(O)c1C(c1cccc(NS(=O)(=O)c3cccc(Cl)c3Cl)c1)C1CC1)CCCCCC2` (centres unmarked) [Example 285, 2,3-Dichloro-N-[3-[cyclopropyl(5,6,7,8,9,10-hexahydro4-hydroxy-2-oxo-2H-cycloocta[b]pyran-3-yl)methyl]phenyl]-benzenesulfonamide], for which the inhibition at 0.123 µM turned out to be 37.6%. For the same compound, the inhibition at 0.37 µM under setting [1] came to 73.8%. Further, the inhibition at 1.1 µM under setting [2] came to 84.6%. For the same compound, the inhibition at 3.3 µM under setting [3] was 95%. Further, the inhibition at 10 µM under setting [4] is 97.7%. Further, the inhibition at 30 µM under setting [5] came out at 91.8%.
Take `Cc1cccc(Cl)c1S(=O)(=O)Nc1cccc(C(c2c(O)c3c(oc2=O)CCCCCC3)C2CC2)c1` (centres unmarked) [Example 287, 2-Chloro-N-[3-[cyclopropyl(5,6,7,8,9,10-hexahydro4-hydroxy-2-oxo-2H-cycloocta[b]pyran-3-yl)methyl]phenyl]-6-methyl-benzenesulfonamide]: the inhibition at 0.37 µM under setting [10] turned out to be 14.1%. For the same compound, the “HIV-1 Protease % Inhib” value runs as follows: (dose 1.100 uM) 36.69%; (dose 3.300 uM) 64.32%; (dose 10.000 uM) 92.75%; (dose 30.000 uM) 106.21%. Also, under setting [9], the inhibition at 1.1 µM was determined as 44.1%. The inhibition at 3.3 µM under setting [6] was 68.2%. In addition, the inhibition at 10 µM under setting [7] was determined as 85.8%. The inhibition at 30 µM under setting [8] was determined as 86.7%.
On to `O=c1oc2c(c(O)c1C(c1cccc(NS(=O)(=O)c3cc(Cl)cc(Cl)c3)c1)C1CC1)CCCCCC2` (centres unmarked) [Example 288, 3,5-Dichloro-N-[3-[cyclopropyl(5,6,7,8,9,10-hexahydro-4-hydroxy-2-oxo-2H-cycloocta[b]pyran-3-yl)methyl]phenyl]-benzenesulfonamide], for which the inhibition at 0.123 µM was 46.9%. Further, the inhibition at 0.37 µM under setting [1] was found to be 79.1%. For the same compound, the inhibition at 1.1 µM under setting [2] is 90.5%. For the same compound, the inhibition at 3.3 µM under setting [3] was found to be 92.9%. Besides, the inhibition at 10 µM under setting [4] stood at 105%. Besides, under setting [5], the inhibition at 30 µM was 101%.
